Measurements published in US20200347136A1, “CONSTRAINED CYCLIC PEPTIDES AS INHIBITORS OF THE CD2:CD58 PROTEIN-PROTEIN INTERACTION FOR TREATMENT OF DISEASES AND AUTOIMMUNE DISORDERS” (Board of Supervisors for the University of Louisiana System, priority 2019, published 2020).
Entries after “also recorded” stand apart in the source; their conditions may differ.

Columns and labels:
A549 cells = conditions: read-out: IC50 A549 (HER2+); antiproliferative activity
Experimental: (§1) Antiproliferative activity of grafted cyclic peptides. Antiproliferative activity of the designed grafted peptides was evaluated in different HER2-overexpressing cancer cell lines as well as HER2 negative cancer cell lines.
(§2) Table 1. […] Single letter amino acid code was used for peptide sequence. Lower case letters refer to D amino acids and capital letters refer to L amino acids. Chirality of Anapa was indicated with R and S configuration in italics. Antiproliferative activity of peptides in cancer cell lines are given as IC50 in μM. Disulfide bonds between the cysteines are underlined.

BT-474 cells = conditions: read-out: IC50 BT-474 (HER2+); antiproliferative activity
Experimental: as §1, §2

Calu-3 cells = conditions: read-out: IC50 Calu-3 (HER2+); antiproliferative activity
Experimental: as §1, §2

MCF-7 cells = conditions: read-out: IC50 MCF-7 (HER2−); antiproliferative activity
Experimental: as §1, §2

[1] = test system: phosphorylation of HER2 and Akt; assay: Western blot of HER2 and Akt phosphorylation, A549 cells; format: cell-based
Experimental: Binding to ECD protein at different concentrations. Kinetics of association and dissociation are shown. Inset saturation curve for binding. […] EGFR was immobilized on CM5-chip and HER2 was added as analyte. Binding of HER2 to EGFR is shown in red. […] Control represents cells without the peptide and without one of the antibodies (B & E). […] Control represents cells without the peptide and without one of the antibodies (F). […] Nucleus was stained with DAPI. III) Quantification of PLA assay fluorescence intensity. 3-6 different fields were chosen, and intensity of red fluorescence was measured using ImageJ software. […] Scale 20 μm. Magnification 40×. *p<0.05, ** p<0.01. Mean±SEM. […] The visualization of GAPDH was used to ensure equal sample loading in each lane. […] II) Quantification of Western blot images using densitometry. *p<0.05 *** P<0.001. Mean±SEM.
The phosphorylation of HER2 was measured by the p-HER2 monoclonal antibody. […] Lapatinib, an EGFR and HER2 kinase dual inhibitor were used as a positive control.

Calu-3 xenograft tumors = assay: Calu-3 xenograft model of lung cancer in nude mice; format: in vivo
Experimental: 5×10^6 Calu-3 cells suspended in serum-free medium were subcutaneously inoculated in left flank region of mice to induce lung cancer (Foxn1-nude). Peptide (8 mg/kg) was administered via intratumoral injection three times a week after 10 days, Pertuzumab was injected with a loading dose of 12 mg/kg and then 6 mg/kg as maintenance dose intraperitonially once a week, Trastuzumab and pertuzumab combination was injected at a loading dose of 12 mg/kg and then 6 mg/kg as maintenance dose once a week. […] For comparison, pertuzumab (up triangle, blue) and trastuzumab and pertuzumab combination (down triangle, red) also shown (with standard errors for n=6). […] C) PPI inhibition assessed by PLA on tumor tissue sample. […] Tumor sections were homogenized, and protein was extracted and subjected to Western blot. […] (** p<0.01). Mean±SEM.
HER2 dimerization inhibitors such as pertuzumab and trastuzumab and pertuzumab combinations were also administered as control groups (FIG. 11A). […] During the course of the experiment, the tumor size in the control xenograft group without any treatment continued to increase, reaching a diameter of ˜9 mm in 28 days (FIG. 11B).
To evaluate the phosphorylation of HER2 protein, Western blot analysis was performed on frozen tumor samples.

[2] = disulfide bond stability, CD spectrum with dithiothreitol; format: physicochemical; conditions: presence versus absence of dithiothreitol
[3] = thermal stability by circular dichroism and MALDI-TOF; format: physicochemical; conditions: CD and mass spectrum, 25-75° C., in solution
Experimental: To confirm further, a mass spectrum of SFTI-G5 was obtained from the solution used to record the CD spectrum at different temperatures. Freeze-dried samples of different temperatures were analyzed via MALDI-TOF mass spectrometry.

T cells (splenocytes) = assay: immunogenicity, flow cytometry T-cell proliferation (Ki-67) in primed BALB/c mice; format: in vivo; conditions: BALB/c mice primed 6 mg/kg; splenocytes with 5 μM peptide, 48 h
Experimental: SFTI-G5 is not immunogenic in mice. Molecules that are not endogenous to the body can trigger cellular responses when administered. […] Ki-67 is a proliferation marker of nuclear protein and has been used to measure specific T-cell responses. […] The animals were sacrificed on the 13th day, and splenocytes were harvested and cultured in vitro from both control and primed groups, either in the presence or absence of the peptide. Concanavalin A (5 μg/mL), an antigen-independent mitogen known to induce T-cell proliferation, was used as a positive control.

[4] = test system: A549 Red-FLuc lung tumors; assay: experimental metastasis model of lung cancer, A549 Red-FLuc cells
MCF-10A cells = assay: Cell Titer-Glo antiproliferative assay, MCF-10A; format: cell-based; conditions: antiproliferative activity, non-cancerous breast epithelial cell line
Experimental: as §1, §2

[5] = molecular target: T1, HER2 ECD protein (domains I-IV) (Homo sapiens, UniProt P04626); assay: SPR binding to immobilized HER2 ECD; conditions: analyte over immobilized HER2 ECD
T1 construct: immobilizing HER2 ECD protein (domains I-IV, 620 amino acids)
T1 sequence (P04626 23-652 limits assumed): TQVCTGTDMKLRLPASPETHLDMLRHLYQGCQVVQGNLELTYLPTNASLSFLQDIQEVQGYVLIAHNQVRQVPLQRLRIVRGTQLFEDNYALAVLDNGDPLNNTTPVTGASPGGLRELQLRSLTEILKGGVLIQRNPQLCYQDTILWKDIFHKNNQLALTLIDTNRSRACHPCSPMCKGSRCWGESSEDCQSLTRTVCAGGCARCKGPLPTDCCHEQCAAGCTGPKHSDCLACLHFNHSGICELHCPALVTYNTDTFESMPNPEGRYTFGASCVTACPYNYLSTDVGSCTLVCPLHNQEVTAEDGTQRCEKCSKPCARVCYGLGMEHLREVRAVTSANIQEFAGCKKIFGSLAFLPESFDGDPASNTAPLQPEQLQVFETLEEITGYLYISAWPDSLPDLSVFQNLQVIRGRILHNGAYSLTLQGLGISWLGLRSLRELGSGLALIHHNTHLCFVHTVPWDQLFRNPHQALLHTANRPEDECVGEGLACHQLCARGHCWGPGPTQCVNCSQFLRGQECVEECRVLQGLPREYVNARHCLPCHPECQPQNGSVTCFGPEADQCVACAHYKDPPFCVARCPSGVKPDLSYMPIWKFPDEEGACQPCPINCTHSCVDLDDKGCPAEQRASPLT
Experimental: Binding affinities were obtained by global fitting analysis of the titration curve to the 1:1 Langmuir interaction model, and the Kd value was calculated.

| Compound | IC50 (A549 cells) | IC50 (BT-474 cells) | IC50 (Calu-3 cells) | IC50 (MCF-7 cells) | total HER2 protein levels [1] | phosphorylation of Akt ([1]; 1 μM, 40 h, vs control) | phosphorylation of HER2 kinase ([1]; 1 μM, 40 h, vs control) | tumor growth (Calu-3 xenograft tumors; Calu-3 xenograft, SFTI-G5 8 mg/kg intratumoral thrice a week, antibodies 12 then 6 mg/kg once a week) | tolerability, body weight and clinical observations (Calu-3 xenograft tumors; SFTI-G5 monotherapy dosing schedule) | EGFR:HER2 dimerization in tumor sections (PLA) (Calu-3 xenograft tumors; vs control tumor sample) | HER2 phosphorylation in tumor samples (Western blot) (Calu-3 xenograft tumors; vs vehicle treatment) | CD spectrum on addition of DTT [2] | thermal stability [3] | immune response: Ki-67 expression in CD3+ subsets (T cells (splenocytes)) | rate of tumor growth, total flux (p/s) ([4]; 6 mg/kg i.v. twice a week, vs vehicle) | H&E histology of lungs: enlarged hyperchromatic nuclei, eosinophilic cytoplasm ([4]; vs vehicle control) | IC50 (MCF-10A cells) | SPR response on HER2 ECD [5] |
| --- | --- | --- | --- | --- | --- | --- | --- | --- | --- | --- | --- | --- | --- | --- | --- | --- | --- | --- |
| CC[C@H](C)[C@@H]1NC(=O)[C@H](CCCNC(=N)N)NC(=O)C[C@@H](c2cccc3ccccc23)NC(=O)[C@@H]2CSSC[C@H](NC(=O)C[C@@H](c3cccc4ccccc34)NC(=O)[C@H](CCCNC(=N)N)NC(=O)[C@@H]3CCCN3C(=O)[C@@H]3CCCN3C1=O)C(=O)N[C@@H](Cc1ccccc1)C(=O)N1CCC[C@H]1C(=O)N[C@@H](CC(=O)O)C(=O)N[C@@H](CC(=O)O)C(=O)N[C@@H](Cc1ccccc1)C(=O)N2 [SFTI-G5, Cyclo(C(S-X)RIPPR(S-X)CFPDDF)] | 0.369 µM | 0.28 µM | 0.073 µM | 25.6 ± 1.46 µM | no significant change in total HER2 protein levels | significantly inhibited the phosphorylation of Akt | significantly decreases the phosphorylation of HER2 kinase | delay in tumor growth that was significant compared to control; also recorded: delayed tumor growth | well-tolerated | markedly diminished signals from dimerization | significant inhibition of HER2 phosphorylation | sharp change in CD spectrum | stable at 75 °C; also recorded: stable up to 75 °C | did not show any significant immune response; also recorded: non-immunogenic | decreased; also recorded: significant reduction in tumor growth | there were less | > 50 µM | – |
| NCCCC[C@H](N)C(=O)NC(CC(=O)N[C@@H](Cc1ccccc1)C(=O)O)c1cccc2ccccc12 (stereo partly drawn) [Control, H2N-K(X)F-OH] | – | – | – | – | – | – | – | – | – | – | – | – | – | – | – | – | – | no SPR response was recorded |
